Patent US6534524B1, “Indazole compounds and pharmaceutical compositions for inhibiting protein kinases, and methods for their use” (Agouron Pharmaceuticals, Inc., priority 1999, dated 2003)
Where two headings read alike, the source gives them in different places.

Key:
[1] = Determination of inhibitor concentration in mouse plasma after intraperitoneal and oral dosing; format: in vivo
Procedure: Blood collection was via ocular bleed at 0.5, 1, 4 hr with the final time point, 7 hour, via intracardiac puncture. The blood was centrifuged to collect plasma, which was then stored at −80° C. until analysis. Samples were prepared for analysis using an internal standard and sodium hydroxide. After vortexing, ethyl acetate was added and mixed for 15-20 minutes at ambient temperature. […] The samples were then analyzed via HPLC or LC-MS. Compound levels were quantitated by generating a standard curve of known compound concentration in mouse plasma.

[2] = tested on: human umbilical vein endothelial cells (HUVEC); assay: HUVEC proliferation assay (VEGF-stimulated, MTT); format: cell-based; settings: crude reaction mixtures; for % inhibition: Library III, HUVEC proliferation, nominal concentration of 0.5 nM; for % inhibition of the proliferation of HUVEC: Library II, Y=S;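 on % inhibition of the proliferation of HUVEC: relative to VEGF-stimulated control minus starvation-medium baseline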
[3] = PO, 25 mg/kg, vehicle PEG400:H2O pH 2.3 30:70
[4] = female, PO, 25 mg/kg, vehicle PEG400:H2O pH 2.3 30:70, read-out: Cmin (7 hr conc.)
[5] = PO, 10 mg/kg, vehicle PEG400:H2O pH 2.3 60:40
[6] = IP, 25 mg/kg, vehicle PEG400:H2O pH 2.3 60:40
[7] = PO, 50 mg/kg, vehicle PEG400:H2O pH 2.3 60:40
[8] = 0.5 mM (column head; text: nominal 0.5 nM)
[9] = 2 mM (column head; text: nominal 2 nM)

SMILES: CCc1cc(C(=O)Nc2cccc(C(=O)c3ccc4c(/C=C/c5ccccn5)n[nH]c4c3)c2)n(C)n1 [Example 41(v), 6-[3-((3-Ethyl-1-methyl-1H-pyrazol-5-yl)carboxamido)benzoyl]-3-E-[2-(pyridin-2-yl)ethenyl]-1H-indazole]
- AUClast [1, 3]: 10949 ng·h/mL
- plasma half-life (T1/2) [1, 3]: 4.4 h
- concentration at 7 h [1, 4]: 749 ng/mL

SMILES: O=C(NCCc1cccs1)c1ccccc1Sc1ccc2c(/C=C/c3ccccn3)n[nH]c2c1 [Example 35(hh), 6-[2-(2-(Thien-2-yl)ethylcarbamoyl)phenylsulfanyl]-3-E-[2-(pyridin-2-yl)ethenyl]-1H-indazole]
- AUClast [1, 3]: 292 ng·h/mL
- plasma half-life (T1/2) [1, 3]: 1.7 h
- concentration at 7 h [1, 4]: 5 ng/mL

SMILES: CCn1nc(C)cc1C(=O)Nc1cccc(Oc2ccc3c(/C=C/c4cn(C)c(C)n4)n[nH]c3c2)c1 [Example 31(f), 6-[3-((1-Ethyl-3-methyl-1H-pyrazol]-5-yl)carboxanido)phenoxyl-3-E-[2-(1,2-dimethyl-1Himidazol-4-yl)ethenyl]-1H-indazole]
- plasma half-life (T1/2) [1, 3]: 2.6 h
- AUC(0-t) ([1]; female, PO, 25 mg/kg, vehicle PEG400:H2O pH 2.3 30:70): > 245000 ng·h/mL
- Cmax ([1]; female, PO, 25 mg/kg, vehicle PEG400:H2O pH 2.3 30:70, read-out: Cmax): > 50000 ng/mL
- concentration at 7 h [1, 4]: 9520 ng/mL

SMILES: Cc1cccc(C(=O)Nc2cccc(Oc3ccc4c(/C=C/c5ccccc5)n[nH]c4c3)c2)c1 [5b]
- AUClast [1, 5]: 61 ng·h/mL
- plasma half-life (T1/2) [1, 5]: 3.1 h

SMILES: Cc1cc(C(=O)Nc2cccc(C(=O)c3ccc4c(/C=C/c5ccccn5)n[nH]c4c3)c2)cc(Cl)n1 [Example 41(q), 6-[3-((2-Chloro-6-methylpyridin-4-yl)carboxanlido)benzoyl]-3-E-[2-(pyridin-2-yl)ethenyl]-1H-indazole]
- plasma half-life (T1/2) [1, 3]: 5.2 h
- AUC(0-t) ([1]; female, IP, 25 mg/kg, vehicle PEG400:H2O pH 2.3 30:70): > 27000 ng·h/mL

SMILES: Cc1ccc2cc(NC(=O)c3ccccc3Sc3ccc4c(/C=C/c5ccccn5)n[nH]c4c3)ccc2n1 [Example 33(b)]
- AUClast [1, 6]: 11245 ng·h/mL
- Cmax [1, 6]: 1990 ng/mL
- plasma half-life (T1/2) [1, 6]: 3.0 h
- AUClast [1, 7]: 3925 ng·h/mL
- Cmax [1, 7]: 1496 ng/mL
- plasma half-life (T1/2) [1, 7]: 3.0 h
- concentration at 7 h ([1]; female, IP, 25 mg/kg, vehicle PEG400:H2O pH 2.3 60:40, read-out: Cmin (7 hr conc.)): 902 ng/mL
- concentration at 7 h ([1]; female, PO, 50 mg/kg, vehicle PEG400:H2O pH 2.3 60:40, read-out: Cmin (7 hr conc.)): 76 ng/mL

SMILES: Cc1ccc(CNC(=O)c2ccccc2Sc2ccc3c(/C=C/c4ccccn4)n[nH]c3c2)cc1C
- % inhibition [2]: −6%

SMILES: O=C(Nc1cccnc1)c1ccccc1Sc1ccc2c(/C=C/c3ccccn3)n[nH]c2c1
- % inhibition [2]: −2%

SMILES: O=C(NCCc1c[nH]c2ccccc12)c1ccccc1Sc1ccc2c(/C=C/c3ccccn3)n[nH]c2c1
- % inhibition [2]: 18%

SMILES: COc1cccc(CCNC(=O)c2ccccc2Sc2ccc3c(/C=C/c4ccccn4)n[nH]c3c2)c1
- % inhibition [2]: 8%

SMILES: CC1(C)CC(NC(=O)c2ccccc2Sc2ccc3c(/C=C/c4ccccn4)n[nH]c3c2)CC(C)(C)N1
- % inhibition of the proliferation of HUVEC [2, 8]: 35%
- % inhibition of the proliferation of HUVEC [2, 9]: 10%

SMILES: CC(C)[C@@H](CO)NC(=O)c1ccccc1Sc1ccc2c(/C=C/c3ccccn3)n[nH]c2c1
- % inhibition [2]: −19%

SMILES: CC(CNC(=O)c1ccccc1Sc1ccc2c(/C=C/c3ccccn3)n[nH]c2c1)N(C)C (stereo not drawn)
- % inhibition of the proliferation of HUVEC [2, 8]: −9%
- % inhibition of the proliferation of HUVEC [2, 9]: 1%

SMILES: NS(=O)(=O)c1ccc(CNC(=O)c2ccccc2Sc2ccc3c(/C=C/c4ccccn4)n[nH]c3c2)cc1
- % inhibition of the proliferation of HUVEC [2, 8]: 1%
- % inhibition of the proliferation of HUVEC [2, 9]: 13%

SMILES: O=C(Nc1ncccc1O)c1ccccc1Sc1ccc2c(/C=C/c3ccccn3)n[nH]c2c1
- % inhibition [2]: 4%

SMILES: O=C(NNC(=O)c1ccccc1Sc1ccc2c(/C=C/c3ccccn3)n[nH]c2c1)c1ccc[nH]1
- % inhibition of the proliferation of HUVEC [2, 8]: 60%
- % inhibition of the proliferation of HUVEC [2, 9]: 99%
